Source: patent US8710021B2, “Inhibition of HRP-3 using modified oligonucleotides” (Bionucleon S.r.l., priority 2008, dated 2014)
“Also recorded” adds a separate entry of the source.

Legend:
[1] = system: GI-LI-N cells; details: 48 h
[2] = molecular target: soluble HRP-3 (Homo sapiens, UniProt Q9Y3E1); test: In vitro anti-angiogenic activity (data not shown); type: cell-based
[3] = Acute toxicity in vivo in CD-1 female mice; details: 3, 10 and 30 mg/kg i.v. or i.p.
Description: We have evaluated in vivo the acute toxicity of BN210. 30 CD-1 female mice (Charles River Italia s.r.l., Via Indipendenza, 11-23885 CALCO (Lecco)), weighing 21.8-22.9 g, were divided in 6 groups, each of 5 animals, and housed in Makrolon cages (type III) at a room temperature of 22±3° C. and at a relative humidity of 55±15%. Air changes were 180-220/hour. Three doses of BN210, dissolved in phosphate buffered saline, were tested: 3, 10 and 30 mg/kg given intravenously (i.v., via the tail vain) or intraperitoneally (i.p.). BN210 concentrations in the formulates were 0.155, 0.517 and 1.551 mg/ml, respectively. Mice were observed daily, twice/day, for the appearance of toxicity signs during the 14 days following drug administration. The parameters commonly checked in the Irvin test were taken into consideration. […] After 14 days of observation, all mice were sacrificed and dissected for gross pathology examination. Any sign or pathological alterations were the subject of close scrutiny during the necropsy.

[4] = molecular target: T1, HRP-3 (Homo sapiens, UniProt Q9Y3E1); test: HRP-3 induced sprouting of HUVEC blocked by single strand oligonucleotides; type: cell-based; details: recombinant HRP-3 plus synthetic oligo
T1 construct: The HRP-3 coding region was cloned into the pET30 vector using EcoRI and NdeI as restriction sites; made in house; host or cells: E. coli BL21
T1 sequence (Q9Y3E1 whole entry): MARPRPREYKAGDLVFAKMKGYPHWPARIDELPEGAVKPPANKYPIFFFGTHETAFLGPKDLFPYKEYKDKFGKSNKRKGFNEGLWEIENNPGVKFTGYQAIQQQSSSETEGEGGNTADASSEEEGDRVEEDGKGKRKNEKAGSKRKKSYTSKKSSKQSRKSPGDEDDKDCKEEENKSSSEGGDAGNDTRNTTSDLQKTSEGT
Excerpt: We tried to twice block the protein effect of human endothelial cells sprouting with a modified single strand oligonucleotides. In samples with recombinant protein, and synthetic oligos, SEQ ID NO. 16, 17, and 18 the number of sprouted spheroids was reduced as compared to samples with recombinant protein (FIG. 19).

[5] = system: GI-LI-N neuroblastoma xenograft; test: Orthotopic neuroblastoma (GI-LI-N) xenograft survival in nude mice; type: in vivo; details: VCR 1 mg/kg i.v. once a week for 5 weeks
Description: Mice were housed under specific pathogen-free conditions. The in vivo experiment was performed using five week old female athymic (Nude-nu) mice. Mice were anaesthetized with a mixture of xylazine (10 mg/kg) and ketamine (90 mg/kg) (Imalgene 1000, Merial Italia S.p.A., Milan, Italy), subjected to laparatomy, and orthotopically injected with the neuroblastoma (NB) cell line, GI-LI-N (1.5×10^6 cells in 10 μL of saline solution/mouse), in the capsule of the left adrenal gland, as previously reported (Pastorino F. et al., Cancer Res 63, 2003; Pastorino F. et al., Clin Cancer Res 2008). No mortality was observed following tumour cells implantation. NB tumours were allowed to grow from the injected cells for 22 days, then animals were randomly divided in 3 groups. One group was treated i.v., once a week for 5 weeks, with 1 mg/kg of vincristine (VCR, 5 administration in total). A second group of animals was treated with a combination of VCR (i.v. injection of 1 mg/kg, once a week for 5 weeks, 5 administration in total) and BN210 (i.p. injection of 7 mg/kg, 5 days/week, 20 administrations in total). Negative control mice were treated with HEPES-buffered saline. The significance of the differences between experimental groups (n=8 mice/group) in the survival experiments was determined by Kaplan-Meier curves by the use of Chi square log-rank test. […]

[6] = system: HUVEC cells; test: HUVEC sprouting test; type: cell-based, human
Description: (§1) While no effects on the proliferation on BAEC and HUVEC cells were found, HRP-3 is able to induce HUVEC sprouting after 24 hours of stimulation. As shown in FIGS. 3 and 4 the HRP-3 can induce sprouting in HUVEC cells in a dose dependent manner. In FIG. 4 we have shown the negative control and the positive control with VEGF at 60 ng/ml. […] To be sure of ours results, experiments have been made in blind too.
Furthermore to confirm VEGF-independent angiogenic activity we performed another sprouting test with Avastin, anti-VEGF antibody in presence of VEGF and our protein.

[7] = molecular target: T1, HRP-3; test: 3T3 migration in vitro assay: prevention of HRP-3 function by DNA duplexes; type: cell-based, mouse
Description: All the four DNA duplexes were tested in our 3T3 migration in vitro assay to see if they were able to prevent HRP-3 function by binding its PWWP domain (FIG. 13). […] The third column on the left is the negative control.

[8] = system: NIH 3T3 fibroblasts; test: 3T3 migration assay in presence of increasing amounts of HRP-3; type: cell-based, mouse; details: 30 ng/mL HRP-3, 24 h
Description: (§2) In analogy with the reported HDGF activity on NIH 3T3 fibroblast, we decided to test the HRP-3 activity on these cells to develop a test able to report any interfering activity by a ligand able to bind the PWWP domain. Migration and proliferation assay of 3T3 cells in presence of increasing amounts of the protein were performed. These assays allow the definition of a strong anti-migratory effect of the HRP-3 protein, which at 30 ng/mL is able to prevent 50% of the 3T3 migration induced at 24 h by 5% FBS. This test was validated and is currently well reproducible, FIG. 2.

[9] = system: HUVEC; test: HUVEC migration assay in presence of increasing amounts of HRP-3; type: cell-based, human; details: 100 ng/ml HRP-3, 5 and 16 h
Description: Migration assay of HUVEC in presence of increasing amounts of the protein was performed (FIG. 9). These assay allows the definition of a anti-migratory effect of the protein on human endothelial cells in a dose-dependent manner, which at 100 ng/ml is able to prevent about 80% of the migration induced at 5 and 16 h by 5% FBS.

[10] = system: HUVEC cells; test: mRNA expression in HUVEC by Real Time PCR; type: cell-based, human
Excerpt: To understand the molecular basis of this stimulation, we studied mRNA expression of HRP-3 in HUVEC cell line by Real Time PCR. […] To understand if VEGF or VEGFR-2 was involved with the HRP-3 induced mechanism, we stimulated HUVEC cells with our HRP-3 and investigated mRNA levels of VEGF, VEGFR-2, HRP-3 and HDGF. The expression of those genes is not changed by HRP-3, FIGS. 5 and 6.

[11] = system: HUVEC; test: Tube formation assay in Matrigel; type: cell-based, human; details: after 24 hours, preliminary result
[12] = system: SH-SY5 neuroblastoma cells; test: Proliferation assay of SH-SY5 cells; type: cell-based, human; details: 100 ng/mL HRP-3, 24 and 48 h
Description: Angiogenesis plays a key role during neural differentiation, exerting a trophic activity on both neurons and glia. A variety of angiogenic factors have been identified so far to play an important role in the induction of angiogenesis in NBs, including vascular endothelial growth factor (VEGF). Proliferation assay of SH-SY5 and NCS-34 cells in presence of increasing amounts of the protein were performed. These assays allow the definition of a anti-proliferatory effect of the protein only on SHSY, which at 100 ng/mL is able to prevent 25% of the SH-SY5 proliferation induced at 24 and 48 h by 5% FBS.

[13] = system: HUVEC; test: Proliferation of endothelial primary cells (HUVEC); type: cell-based, human
Description: as §1

[14] = system: BAEC; test: Proliferation of endothelial primary cells (BAEC); type: cell-based
Description: as §1

[15] = system: 3T3 cells; test: 3T3 proliferation assay; type: cell-based, mouse
Description: as §2

[16] = system: 3T3 cells; test: 3T3 anchorage independent growth; type: cell-based, mouse

soluble HRP-3, sequence (Q9Y3E1 whole entry): as above

Q: With “5′-PEG (40 KDa)-(NH)-T*AC AACACCCACAAAAAAUTTGTGGGTGTT GTiA-3' (BTACAACACCCACAAAAAAUTTGTGGGTGTTGTA; 5'-PEG 40 kDa amino linker, 3' inverted nucleotide, hairpin, further chemistry not given here) [BN210]” as the compound, how does the “effect of addition on vincristine treatment” value ([1]; 250 nM BN210 with vincristine 0.15 to 5 nM) read?
A: Its value is “did not enhance or inhibit”.

Q: And the “anti-angiogenic activity in vitro” value [2]?
A: Its value is “anti-angiogenic activity”.

Q: What about the “clinical or behavioural signs of toxicity” value ([3]; 14 days observation) of the same compound?
A: The value was “no signs of clinical or behavioural alterations”.

Q: And the “gross pathology at necropsy” value ([3]; after 14 days)?
A: Its value is “No macroscopic signs or pathological changes”.

Q: With “5′-TACAACACCCACAAAAAATTTGTGGGTGTTGTA-3' (TACAACACCCACAAAAAATTTGTGGGTGTTGTA; DNA, backbone and methylation of C not given here) [SEQ ID NO. 16]” as the compound, how does the “number of sprouted HUVEC spheroids versus recombinant protein alone” value [4] read?
A: The value was “can block; also recorded: reduced”.

Q: With “5′-TAC AAC ACC CAC AAA-[CH2CH2O]5-TTT GTG GGT GTT GTA-[CH2CH2O]5H-3' (TACAACACCCACAAABTTTGTGGGTGTTGTAB; PEG5 spacers, chemistry not fully specified) [SEQ ID NO. 18]” as the compound, how does the “number of sprouted HUVEC spheroids versus recombinant protein alone” value [4] read?
A: Its value is “reduced”.

Q: With “5′-UACAACACCCACAAAAAAUUUGUGGGUGUUGUA-3' (2'-OMe) (UACAACACCCACAAAAAAUUUGUGGGUGUUGUA; all 2'-O-methyl, backbone not given here) [SEQ ID NO. 17]” as the compound, how does the “number of sprouted HUVEC spheroids versus recombinant protein alone” value [4] read?
A: The value was “reduced”.

Q: What does the source list for `CC[C@]1(O)C[C@H]2CN(CCc3c([nH]c4ccccc34)[C@@](C(=O)OC)(c3cc4c(cc3OC)N(C=O)[C@H]3[C@@](O)(C(=O)OC)[C@H](OC(C)=O)[C@]5(CC)C=CCN6CC[C@]43[C@@H]65)C2)C1` [vincristine, reference compound]?
A: concentration inhibiting proliferation of GI-LI-N cells ([1]; MTT): 2.5 to 5 nM; life span compared to negative control mice [5]: did not show any increase of their life span

Q: With Avastin: anti-VEGF antibody as the compound, how does the “effect on VEGF-mediated HUVEC sprouting” value ([6]; in presence of VEGF) read?
A: The value was “blocks HUVEC sprouting VEGF-mediated”.

Q: With “Duplex 2: derived DNA double strand with base changes versus Duplex 1, to test importance of sequence for binding (chain 1 TACAACATTCACAAA; chain 2 TTTGTGAATGTTGTA; chain 1: DNA, backbone and methylation of C not given here; chain 2: DNA, backbone not given here)” as the compound, how does the “activity in abolishing the anti-migratory effect of HRP-3 on 3T3 cells” value (“activity … on 3T3 cells” below) [7] read?
A: The value was “modest activity”.

Q: With “Duplex 3: derived DNA double strand designed to test different molecular shapes (chain 1 TACAACAAACCCACAAA; chain 2 TTTGTGGGTGTTGTA; chain 1: DNA, backbone and methylation of C not given here; chain 2: DNA, backbone not given here)” as the compound, how does the “activity … on 3T3 cells” value [7] read?
A: The value was “no activity”.

Q: With “Duplex 4: derived DNA double strand with base changes versus Duplex 1, to test importance of sequence for binding (chain 1 CACACACACACACAC; chain 2 GTGTGTGTGTGTGTG; chain 1: DNA, backbone and methylation of C not given here; chain 2: DNA, backbone not given here)” as the compound, how does the “activity … on 3T3 cells” value [7] read?
A: Its value is “no activity”.

Q: With “HRP-3: recombinant HDGF Related Protein 3 with PWWP domain, cDNA from human cells, produced in E. Coli” as the compound, how does the “prevention of 3T3 migration induced by 5% FBS” value [8] read?
A: The value was 50%.

Q: And the “prevention of HUVEC migration induced by 5% FBS” value [9]?
A: The value was “about 80%”.

Q: And the “mRNA levels of VEGF, VEGFR-2, HRP-3 and HDGF after HRP-3 stimulation” value ([10]; HUVEC stimulated with HRP-3)?
A: Its value is “not changed”.

Q: What about the “vessel-like network of HUVEC in tube formation assay” value [11] of the same compound?
A: Its value is “able to maintain vessel-like network of HUVEC”.

Q: And the “prevention of SH-SY5 proliferation induced by 5% FBS” value [12]?
A: Its value is 25%.

Q: And the “effect on proliferation of HUVEC” value [13]?
A: The value was “no effects”.

Q: And the “effect on proliferation of BAEC” value [14]?
A: Its value is “no effects”.

Q: And the “concentration that blocks 3T3 proliferation” value [15]?
A: Its value is 0.1 ng/mL.

Q: What about the “concentration stimulating sprouting on HUVEC cells” value ([6]; 24 hours of stimulation) of the same compound?
A: The value was “above 100 ng/ml”.

Q: What about the “concentration that blocks 3T3 anchorage independent growth” value [16] of the same compound?
A: The value was 0.1 ng/mL.

Q: Which “HRP-3 mRNA levels after VEGF treatment” value ([10]; HUVEC treated with 60 ng/ml VEGF, versus negative control) does the source give for VEGF here?
A: The value was “no significant difference”.
